Data: US6113896A, “Pharmaceutical compositions containing ecotin and homologs thereof” (priority 1994, dated 2000)

Assays:
[1] = tested on: FXa; test: Ecotin·FXa dissociation rate constant (HLE trap); assay type: biochemical, human; settings: calculated from (Ki)·(kon)
Procedure: Determination of FXa dissociation rate constant The dissociation rate constant of the ecotin.cndot.FXa complex was measured using HLE to trap the free ecotin released from the complex. FXa (10 μM) was incubated for 1 h in TNCT buffer in the presence and absence of ecotin (12.5 μM) and diluted 1000-fold into TNCT buffer with and without HLE (500 nM). Aliquots (180 μl ) were removed at various times and initial rates of free FXa were measured at 405 nm with 20 μl of 5 mM Spectrozyme fXa. The product curve (free FXa versus time) was fit to equation 6; the value for koff was determined by nonlinear regression analysis.
To measure the dissociation rate constant of ecotin from FXa, the complex was diluted 1000-fold into buffer containing a 50-fold excess of HLE to trap the free ecotin and prevent reassociation. In the absence of HLE, reassociation of ecotin with FXa was so rapid that free FXa was barely detectible (FIG. 4B). Progress of dissociation was monitored as the increase in hydrolysis rate of Spectrozyme fXa resulting from the increasing free FXa with time. Because HLE prevented reassociation the rate of dissociation of the E·I complex is given by equation (5): [formula] which upon integration gives equation (6): […]
where [E] is the free [FXa] at any time t, [E.cndot.I]0 is the concentration of the complex at time zero, and koff is the first order dissociation rate constant. The time dependent E·I complex dissociation curve fit to equation (6) by nonlinear regression analysis is shown in FIG. 4B; the dissociation rate constant for ecotin tested is shown above in Table I.

[2] = tested on: human FXa; test: Equilibrium inhibition constant with Factor Xa (tight-binding analysis); assay type: biochemical; settings: compared with wild type
Procedure: Determination of Equilibrium Inhibition Constants Apparent Ki values (Ki *) for the inhibition of the enzymes tested by ecotin and mutants were measured as follows. All reactions were performed at 25° C. Stock solutions of trypsin were quantitated by active site burst titration with MUGB as previously described (Jameson, G. W. et al., Biochem. J. 131:107-117 [1973]) using a Fluoroskan II plate reader at excitation wavelength of 355 nm and emission wavelength of 460 nm. Data was collected on a Macintosh SE20 using either Delta Soft II Fl v3.31 software (BioMetallics). Active site titrated trypsin was then used to quantitate ecotin active sites using BAPA as the substrate; a stoichiometry of 1:1 was assumed (Chung, C. H. et al., supra). Factor Xa, Factor XIIa, plasma kallikrein, or HLE were then quantitated by active site titration using ecotin as a standard, again assuming 1:1 stoichiometry. In addition, the concentration of HLE was quantitated by methods previously described using a calibrated stock of α1 -proteinase inhibitor to titrate the HLE active sites (Beatty, K. et al., J. Biol. Chem. 255:3931-3934 [1980]); the same HLE active site concentration was determined using both ecotin and α1 -proteinase inhibitor. The substate for FXa was Spectrozyme fXa (0.5 mM); the substrate for FXIIa (0.5 mM) and plasma kallikrein was S2302 (0.5 mM); the substrate for HLE was MeOSuc-Ala-Ala-Pro-Val-pNA (0.4 mM). There was good agreement upon comparison of the protein concentrations determined by amino acid analysis, Bradford analysis (Bradford, M. M. Anal. Biochem. 72:248-254 (1976) or active site titrations for trypsin, ecotin, FXa, FXIIa, plasma kallikrein, and HLE.
Therefore, apparent equilibrium dissociation values (Ki *) were determined using methods derived for tight-binding inhibitors (Morrison, J. F. Biochim. Biophys. Acta 185:269-286 [1969]), (Bieth, J. in Proteinase Inhibitors (Fritz, H., Tschesche, H., Greene, L. J. and Truscheit, E., Ed.) pp 463-469, Springer-Verlag, New York [1974]). Data were fit by nonlinear regression analysis to equation 1 and values for Ki * were determined. [formula] where α is the fractional activity (steady-state inhibited rate divided by the uninhibited rate), [Eo ] is the total enzyme concentration, and [Io ] is the total ecotin concentration. Since the inhibitor and substrate compete for the same site, the true Ki value is related to Ki^* by the expression Ki =Ki */(1+[S]/Km), where Km is the Michaelis constant for the substrate, and [S] is the substrate concentration.
a. […] Following a 1 hour incubation at room temperature to reach equilibration of the enzyme.cndot.inhibitor complex, 20 μl of 5 mM Spectrozyme fXa was added, and the steady-state rate of product formation measured by monitoring the change in absorbance at 405 nm. The Km for Spectrozyme fXa with FXa under these conditions was determined to be 0.23 mM by linear regression analysis of Lineweaver-Burke plots.

[3] = tested on: HLE; settings: relative to α1-proteinase inhibitor with P1 Met, literature; cited from earlier work

| Substance | koff (values in parenthesis) [1] | inhibition of FXa, in words [2] | decreased inhibition towards HLE [3] |
| --- | --- | --- | --- |
| M84A | 0.00066 s⁻¹ |  |  |
| M84D |  | significant inhibition |  |
| M84E | 0.00057 s⁻¹ | significant inhibition |  |
| α1-Proteinase inhibitor (Pittsburgh): naturally occuring mutant of the serpin α1-proteinase inhibitor which has Arg in the P1 position instead of Met |  |  | 10,000 fold |
